Laboratory results from US20240158341A1, “COMPOUND, MANUFACTURING METHOD THEREFOR, ANTIMICROBIAL AGENT, AND MEDICINAL DRUG” (Murata Manufacturing Co., Ltd., priority 2021, published 2024).

What was measured:
[1] = system: Candida albicans; experiment: Paper disc antimicrobial test; type: cell-based; details: 10 μg/6 mm disc
Description: (§1) An antimicrobial test against the following bacteria and fungi was performed using a paper disc (6 mm, manufactured by ADVANTEC) containing the compound (1a-1).
(§2) (3) Yeast • Candida albicans
(§3) An antimicrobial test was performed with a 10 μg/6 mm disc, using the culture solution of the above bacteria and fungi. The test was conducted in accordance with the method described in Koyama et al., Calpinactam, a new anti-mycobacterial agent, produced by Mortierella alpina FKI-4905, The Journal of Antibiotics (2010) 63, pages 183 to 186.

[2] = system: Mycobacterium smegmatis; experiment: Paper disc antimicrobial test; type: cell-based; details: 10 μg/6 mm disc
Description: as §1
(§4) (1) Gram-Positive Bacteria • Mycobacterium smegmatis • Bacillus subtilis • Staphylococcus aureus • Micrococcus luteus
as §3

[3] = system: Bacillus subtilis; experiment: Paper disc antimicrobial test; type: cell-based; details: 10 μg/6 mm disc
Description: as §1, §4, §3

[4] = system: Micrococcus luteus; experiment: Paper disc antimicrobial test; type: cell-based; details: 10 μg/6 mm disc
Description: as §1, §4, §3

[5] = system: Staphylococcus aureus; experiment: Paper disc antimicrobial test; type: cell-based; details: 10 μg/6 mm disc
Description: as §1, §4, §3

[6] = system: gram-positive bacteria; experiment: Paper disc antimicrobial test, summary for gram-positive bacteria; type: cell-based; details: against gram-positive bacteria
Description: as §1, §4, §3

[7] = system: yeasts; experiment: Paper disc antimicrobial test, summary for yeasts; type: cell-based; details: against yeasts
Description: as §1, §2, §3

[8] = system: gram-positive bacteria; details: against gram-positive bacteria; Non-Patent Literature 1; cited from earlier work

Compound | Inhibitory zone [1] [mm] | Inhibitory zone [2] [mm] | Inhibitory zone [3] [mm] | Inhibitory zone [4] [mm] | Inhibitory zone [5] [mm] | antimicrobial action [6] | antimicrobial action [7] | antimicrobial activity [8]
[C-]#[N+][C@@H](Cc1ccc(O)c(-c2cc(C[C@H](NN)C(N)=O)ccc2O)c1)C(N)=O [compound (1a-1)] | 20 | 19 | 14 | 26 | 23 | showed an antimicrobial action | showed an antimicrobial action | 
hazimycin A |  |  |  |  |  |  |  | had an antimicrobial activity
